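A five-concentration, 48-hour dose response in 96-well plates underlies each endpoint, interpolated linearly between surrounding concentrations. GI50 is the concentration that inhibits growth by half.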 Activity calls are given as the source filed them. No stated cut-off is given here; in the data, active = GI50 up to about 1.1 µM and inactive = higher.
What was measured:
Assay in all cases: DTP human tumour cell line panel, 48 h
786-0 = test system: 786-0
A498 = test system: A498
A549 = test system: A549
ACHN = test system: ACHN
CAKI-1 = test system: CAKI-1
CCRF-CEM = test system: CCRF-CEM
COLO 205 = test system: COLO 205
DU-145 = test system: DU-145
EKVX = test system: EKVX
HCT-116 = test system: HCT-116
HCT-15 = test system: HCT-15
HL-60 = test system: HL-60
HOP-62 = test system: HOP-62
HOP-92 = test system: HOP-92
HT-29 = test system: HT-29
Hs-578T = test system: Hs-578T
IGROV-1 = test system: IGROV-1
K562 = test system: K562
KM12 = test system: KM12
M14 = test system: M14
MCF7 = test system: MCF7
MDA-MB-231 = test system: MDA-MB-231
MDA-MB-435 = test system: MDA-MB-435
MDA-N = test system: MDA-N
MOLT-4 = test system: MOLT-4
NCI-H226 = test system: NCI-H226
NCI-H23 = test system: NCI-H23
NCI-H460 = test system: NCI-H460
NCI-H522 = test system: NCI-H522
NCI/ADR-RES = test system: NCI/ADR-RES
OVCAR-3 = test system: OVCAR-3
OVCAR-4 = test system: OVCAR-4
OVCAR-5 = test system: OVCAR-5
OVCAR-8 = test system: OVCAR-8
PC-3 = test system: PC-3
RPMI-8226 = test system: RPMI-8226
SF-268 = test system: SF-268
SF-295 = test system: SF-295
SK-MEL-28 = test system: SK-MEL-28
SK-MEL-2 = test system: SK-MEL-2
SK-MEL-5 = test system: SK-MEL-5
SK-OV-3 = test system: SK-OV-3
SN12C = test system: SN12C
SNB-19 = test system: SNB-19
SNB-75 = test system: SNB-75
SR = test system: SR
SW-620 = test system: SW-620
T47D = test system: T47D
TK-10 = test system: TK-10
U-251 = test system: U-251
UACC-257 = test system: UACC-257
UACC-62 = test system: UACC-62
UO-31 = test system: UO-31
HCC 2998 = test system: HCC 2998
LOX IMVI = test system: LOX IMVI
Malme-3M = test system: Malme-3M
RXF 393 = test system: RXF 393
SF-539 = test system: SF-539

O=C(OC[C@H]1C[C@H]2C(=O)OCCC[C@H]2O1)c1ccccc1
GI50 (786-0): > 100 µM (inactive)
GI50 (A498): > 100 µM (inactive)
GI50 (A549): > 100 µM (inactive)
GI50 (ACHN): > 100 µM (inactive)
GI50 (CAKI-1): > 100 µM (inactive)
GI50 (CCRF-CEM): > 100 µM (inactive)
GI50 (COLO 205): > 100 µM (inactive)
GI50 (DU-145): > 100 µM (inactive)
GI50 (EKVX): > 100 µM (inactive)
GI50 (HCT-116): > 100 µM (inactive)
GI50 (HCT-15): > 100 µM
GI50 (HL-60): > 100 µM (inactive)
GI50 (HOP-62): > 100 µM (inactive)
GI50 (HOP-92): > 100 µM (inactive)
GI50 (HT-29): > 100 µM (inactive)
GI50 (Hs-578T): > 100 µM (inactive)
GI50 (IGROV-1): > 100 µM (inactive)
GI50 (K562): > 100 µM (inactive)
GI50 (KM12): > 100 µM (inactive)
GI50 (M14): > 100 µM (inactive)
GI50 (MCF7): > 100 µM (inactive)
GI50 (MDA-MB-231): > 100 µM (inactive)
GI50 (MDA-MB-435): > 100 µM (inactive)
GI50 (MDA-N): > 100 µM (inactive)
GI50 (MOLT-4): > 100 µM (inactive)
GI50 (NCI-H226): > 100 µM (inactive)
GI50 (NCI-H23): > 100 µM (inactive)
GI50 (NCI-H460): > 100 µM (inactive)
GI50 (NCI-H522): > 100 µM (inactive)
GI50 (NCI/ADR-RES): > 100 µM (inactive)
GI50 (OVCAR-3): > 100 µM (inactive)
GI50 (OVCAR-4): > 100 µM (inactive)
GI50 (OVCAR-5): > 100 µM (inactive)
GI50 (OVCAR-8): > 100 µM (inactive)
GI50 (PC-3): > 100 µM (inactive)
GI50 (RPMI-8226): > 100 µM (inactive)
GI50 (SF-268): > 100 µM (inactive)
GI50 (SF-295): > 100 µM (inactive)
GI50 (SK-MEL-28): > 100 µM (inactive)
GI50 (SK-MEL-2): > 100 µM (inactive)
GI50 (SK-MEL-5): > 100 µM (inactive)
GI50 (SK-OV-3): > 100 µM (inactive)
GI50 (SN12C): > 100 µM (inactive)
GI50 (SNB-19): > 100 µM (inactive)
GI50 (SNB-75): > 100 µM (inactive)
GI50 (SR): > 100 µM (inactive)
GI50 (SW-620): > 100 µM (inactive)
GI50 (T47D): > 100 µM (inactive)
GI50 (TK-10): > 100 µM (inactive)
GI50 (U-251): > 100 µM (inactive)
GI50 (UACC-257): > 100 µM (inactive)
GI50 (UACC-62): > 100 µM (inactive)
GI50 (UO-31): > 100 µM (inactive)

O=C(c1cccs1)N1CCc2ccccc2C1
GI50 (786-0): > 100 µM (inactive)
GI50 (A498): > 100 µM (inactive)
GI50 (A549): > 100 µM (inactive)
GI50 (ACHN): > 100 µM (inactive)
GI50 (CAKI-1): > 100 µM (inactive)
GI50 (CCRF-CEM): 40.4 µM (inactive)
GI50 (COLO 205): > 100 µM (inactive)
GI50 (DU-145): > 100 µM (inactive)
GI50 (EKVX): 97.1 µM (inactive)
GI50 (HCC 2998): > 100 µM (inactive)
GI50 (HCT-116): 38.2 µM (inactive)
GI50 (HCT-15): > 100 µM
GI50 (HL-60): 30.7 µM (inactive)
GI50 (HOP-62): > 100 µM (inactive)
GI50 (HOP-92): 26.6 µM (inactive)
GI50 (HT-29): > 100 µM (inactive)
GI50 (Hs-578T): 85.5 µM (inactive)
GI50 (IGROV-1): > 100 µM (inactive)
GI50 (K562): 39.1 µM (inactive)
GI50 (KM12): 74.8 µM (inactive)
GI50 (LOX IMVI): > 100 µM (inactive)
GI50 (M14): > 100 µM (inactive)
GI50 (MCF7): > 100 µM (inactive)
GI50 (MDA-MB-231): > 100 µM (inactive)
GI50 (MDA-MB-435): 33.3 µM (inactive)
GI50 (MDA-N): 32.2 µM (inactive)
GI50 (MOLT-4): > 100 µM (inactive)
GI50 (Malme-3M): > 100 µM (inactive)
GI50 (NCI-H226): > 100 µM (inactive)
GI50 (NCI-H23): > 100 µM (inactive)
GI50 (NCI-H460): > 100 µM (inactive)
GI50 (NCI-H522): > 100 µM (inactive)
GI50 (NCI/ADR-RES): 42.1 µM (inactive)
GI50 (OVCAR-3): > 100 µM (inactive)
GI50 (OVCAR-5): > 100 µM (inactive)
GI50 (PC-3): > 100 µM (inactive)
GI50 (RPMI-8226): 85.9 µM (inactive)
GI50 (RXF 393): > 100 µM (inactive)
GI50 (SF-268): > 100 µM (inactive)
GI50 (SF-295): > 100 µM (inactive)
GI50 (SF-539): > 100 µM (inactive)
GI50 (SK-MEL-28): > 100 µM (inactive)
GI50 (SK-MEL-2): > 100 µM (inactive)
GI50 (SK-MEL-5): 62.4 µM (inactive)
GI50 (SK-OV-3): > 100 µM (inactive)
GI50 (SN12C): > 100 µM (inactive)
GI50 (SNB-19): > 100 µM (inactive)
GI50 (SR): 97.5 µM (inactive)
GI50 (SW-620): > 100 µM (inactive)
GI50 (T47D): > 100 µM (inactive)
GI50 (TK-10): > 100 µM (inactive)
GI50 (U-251): > 100 µM (inactive)
GI50 (UACC-257): > 100 µM (inactive)
GI50 (UACC-62): > 100 µM (inactive)
GI50 (UO-31): > 100 µM (inactive)
